Results from patent US8420574B2, “Plant growth enhancement with combinations of PESA and herbicides” (Valent BioSciences Corporation, priority 2009, dated 2013).
Counter-ions that a name gives are not always drawn.

Legend:
Type in all cases: in vivo
rice cv. Cheniere [1] = test: Pouch assay, PESA salt and herbicide added to the pouch solution; root and shoot length
Protocol: Alternatively, PESA salt and herbicides may be added separately to the sterile water in the growth pouch.
(§1) Seeds were placed in germination pouches consisting of germination paper hydrated with sterile water that was an insert in a gas-permeable 16×14 cm plastic pouch (CYG Pouch; Mega International, St. Paul, Minn.). In these examples, in pouch solution evaluation, PESA sodium salt or other active ingredients were added to the sterile water in the pouch. The pouches were arranged in a completely randomized block design in growth racks and placed in 19-liter polycarbonate food storage containers (Rubbermaid Commercial Products, Winchester, Va.). The sealed containers were held in an upright growth cabinet maintained at 25 C with a 12 hour light: 12 hour dark photoperiod. After 6 days, the containers were removed from the growth cabinet, and the lengths of the roots and shoot were measured.

cotton = test: Pouch assay; root and shoot length of cotton; details: for Shoot Length / Root Length: 30 ppm PESA salt; for Shoot Length: untreated 4.7; for Root Length: untreated 7.7
Protocol: as §1

rice cv. Cheniere [2] = test: Pouch assay with PESA salt seed treatment; root length; details: for Root Length: untreated 9.8
Protocol: Procedure for Treating Samples of Seed in the Laboratory
Seed was sieved with a screen of mesh size appropriate to remove broken seeds and small trash. Cracked or otherwise damaged seeds were removed. The seed was well mixed, and 50 g samples were weighed into small plastic trays. Seed treatment slurries were made by adding measured amounts of PESA or its salts and other AIs to sufficient water to bring them up to a standard volume, typically 2 ml. A fungicide (Maxim XL; Syngenta Agricultural Products, Greensboro, N.C.), a polymeric binder (CF-Clear; Becker-Underwood, Ames, Iowa), and a colorant (Color Coat Red; Becker-Underwood, Ames, Iowa) were also included in the slurry at label rates. A small aliquot of this slurry was applied to the seed using the Hege 11 coater (Wintersteiger, Salt Lake City, Utah) with a six-inch bowl at a slurry rate of 30 ounces per 100 lbs of seed. The slurry was deposited drop-wise on the spinning disk atomizer using a syringe.
After treatment, each seed sample was placed in plastic trays and dried at a room temperature for 20 to 60 minutes. The samples were then placed in small plastic bags. Samples were spot-checked using a water activity meter to make sure the water activity is below 0.7.
as §1
Rice cv. Chemere was treated with PESA sodium salt prior to growing in the pouch. The treated seeds were then grown in the pouch in a dose-dependent series of trifluralin concentrations (Table 2). […] This confirms that seed treatment with the PESA salt protects or safens rice from the negative effects of trifluralin herbicide on root growth.

O=C(O)CCC(=O)NCCc1ccccc1 [PESA salt, N-(2-phenylethyl)succinamic acid]
Shoot Length (rice cv. Cheniere [1]; 0 ppm pendimethalin, treatment 30 ppm PESA salt, 10 ppm GA3 or both, untreated 3.9): 3.8 cm
Root Length (rice cv. Cheniere [1]; 0 ppm pendimethalin, treatment 30 ppm PESA salt, 10 ppm GA3 or both, untreated 9.7): 11.2 cm
Shoot Length (rice cv. Cheniere [1]; 10 ppm dithiopyr, treatment none (Control), 30 ppm PESA salt, 10 ppm GA3 or both, untreated 3.9): 2.8 cm
Root Length (rice cv. Cheniere [1]; 10 ppm dithiopyr, treatment none (Control), 30 ppm PESA salt, 10 ppm GA3 or both, untreated 9.5): 6.4 cm
Shoot Length (rice cv. Cheniere [1]; 30 ppm PESA salt, 0 ppm chlorsulfuron, untreated 4.8): 4.9 cm
Root Length (rice cv. Cheniere [1]; 30 ppm PESA salt, 0 ppm chlorsulfuron, untreated 11.6): 12.8 cm
Shoot Length (rice cv. Cheniere [1]; 30 ppm PESA salt, 0 ppm dithiopyr, untreated 4.0): 4.2 cm
Root Length (rice cv. Cheniere [1]; 30 ppm PESA salt, 0 ppm dithiopyr, untreated 9.5): 12.2 cm
Shoot Length (rice cv. Cheniere [1]; 30 ppm PESA salt, 0 ppm metolachlor, untreated 3.7): 3.7 cm
Root Length (rice cv. Cheniere [1]; 30 ppm PESA salt, 0 ppm metolachlor, untreated 9.3): 10.9 cm
Shoot Length (rice cv. Cheniere [1]; 30 ppm PESA salt, 0 ppm pendimethalin, untreated 3.4): 3.6 cm
Root Length (rice cv. Cheniere [1]; 30 ppm PESA salt, 0 ppm pendimethalin, untreated 8.5): 10.1 cm
Shoot Length (rice cv. Cheniere [1]; 30 ppm PESA salt, 0 ppm trifluralin, untreated 3.2): 3.7 cm
Root Length (rice cv. Cheniere [1]; 30 ppm PESA salt, 0 ppm trifluralin, untreated 9.2): 10.7 cm
Shoot Length (rice cv. Cheniere [1]; 30 ppm PESA salt, 1 ppm dithiopyr, untreated 4.0): 4.0 cm
Root Length (rice cv. Cheniere [1]; 30 ppm PESA salt, 1 ppm dithiopyr, untreated 9.5): 11.4 cm
Shoot Length (rice cv. Cheniere [1]; 30 ppm PESA salt, 1 ppm metolachlor, untreated 3.7): 3.9 cm
Root Length (rice cv. Cheniere [1]; 30 ppm PESA salt, 1 ppm metolachlor, untreated 9.3): 8.6 cm
Shoot Length (rice cv. Cheniere [1]; 30 ppm PESA salt, 1 ppm trifluralin, untreated 3.2): 3.6 cm
Root Length (rice cv. Cheniere [1]; 30 ppm PESA salt, 1 ppm trifluralin, untreated 9.2): 10.6 cm
Shoot Length (rice cv. Cheniere [1]; 30 ppm PESA salt, 10 ppm chlorsulfuron, untreated 4.8): 0.9 cm
Root Length (rice cv. Cheniere [1]; 30 ppm PESA salt, 10 ppm chlorsulfuron, untreated 11.6): 0.5 cm
Shoot Length (rice cv. Cheniere [1]; 30 ppm PESA salt, 10 ppm dithiopyr, untreated 4.0): 3.7 cm
Root Length (rice cv. Cheniere [1]; 30 ppm PESA salt, 10 ppm dithiopyr, untreated 9.5): 9.1 cm
Shoot Length (rice cv. Cheniere [1]; 30 ppm PESA salt, 10 ppm metolachlor, untreated 3.7): 0.9 cm
Root Length (rice cv. Cheniere [1]; 30 ppm PESA salt, 10 ppm metolachlor, untreated 9.3): 4.4 cm
Shoot Length (rice cv. Cheniere [1]; 30 ppm PESA salt, 10 ppm pendimethalin, untreated 3.4): 3.2 cm
Root Length (rice cv. Cheniere [1]; 30 ppm PESA salt, 10 ppm pendimethalin, untreated 8.5): 9.4 cm
Shoot Length (rice cv. Cheniere [1]; 30 ppm PESA salt, 10 ppm trifluralin, untreated 3.2): 2.9 cm
Root Length (rice cv. Cheniere [1]; 30 ppm PESA salt, 10 ppm trifluralin, untreated 9.2): 9.1 cm
Shoot Length (rice cv. Cheniere [1]; 30 ppm PESA salt, 100 ppm chlorsulfuron, untreated 4.8): 0.8 cm
Root Length (rice cv. Cheniere [1]; 30 ppm PESA salt, 100 ppm chlorsulfuron, untreated 11.6): 0.3 cm
Shoot Length (rice cv. Cheniere [1]; 30 ppm PESA salt, 100 ppm dithiopyr, untreated 4.0): 1.1 cm
Root Length (rice cv. Cheniere [1]; 30 ppm PESA salt, 100 ppm dithiopyr, untreated 9.5): 0.4 cm
Shoot Length (rice cv. Cheniere [1]; 30 ppm PESA salt, 100 ppm metolachlor, untreated 3.7): 0.6 cm
Root Length (rice cv. Cheniere [1]; 30 ppm PESA salt, 100 ppm metolachlor, untreated 9.3): 1.7 cm
Shoot Length (rice cv. Cheniere [1]; 30 ppm PESA salt, 100 ppm pendimethalin, untreated 3.4): 1.0 cm
Root Length (rice cv. Cheniere [1]; 30 ppm PESA salt, 100 ppm pendimethalin, untreated 8.5): 3.1 cm
Shoot Length (rice cv. Cheniere [1]; 30 ppm PESA salt, 100 ppm trifluralin, untreated 3.2): 2.4 cm
Root Length (rice cv. Cheniere [1]; 30 ppm PESA salt, 100 ppm trifluralin, untreated 9.2): 5.1 cm
Shoot Length (rice cv. Cheniere [1]; 30 ppm PESA salt, 500 ppm pendimethalin, untreated 3.4): 0.5 cm
Root Length (rice cv. Cheniere [1]; 30 ppm PESA salt, 500 ppm pendimethalin, untreated 8.5): 0.6 cm
protection of roots from herbicide (rice cv. Cheniere [1]; 30 ppm PESA with 10 ppm dithiopyr): protected the roots largely from the negative effects of dithiopyr
protection of roots from herbicide (rice cv. Cheniere [1]; 30 ppm PESA with 100 ppm trifluralin): largely protected the roots from the negative effects of trifluralin
Shoot Length (rice cv. Cheniere [1]; 50 ppm pendimethalin, treatment none (Control), 30 ppm PESA salt, 10 ppm GA3 or both, untreated 3.9): 1.1 cm
Root Length (rice cv. Cheniere [1]; 50 ppm pendimethalin, treatment none (Control), 30 ppm PESA salt, 10 ppm GA3 or both, untreated 9.7): 5.6 cm
root length greater than with pendimethalin alone (rice cv. Cheniere [1]; PESA and pendimethalin, on average): 20%
root length relative to pendimethalin alone (rice cv. Cheniere [1]; PESA salt added to pendimethalin (Table 4)): twice the length of those grown in pendimethalin alone
effect on root and shoot length (rice cv. Cheniere [1]; PESA salt in the absence of trifluralin): significant increase in both root and shoot length
protection of roots from herbicide (rice cv. Cheniere [1]; PESA salt with 10 ppm metolachlor): partially protected primary root length
protection of root length from herbicide (rice cv. Cheniere [1]; PESA salt with chlorsulfuron, rice): had no activity in combination with chlorsulfuron
effect on shoot length under herbicide (rice cv. Cheniere [1]; PESA salt with dithiopyr): did not significantly alter the negative effects of dithiopyr on shoot length
effect on shoot growth under herbicide (rice cv. Cheniere [1]; PESA salt with pendimethalin): did not overcome the negative effects of pendimethalin on shoot growth
effect on shoot length under herbicide (rice cv. Cheniere [1]; PESA salt with trifluralin): did not consistently overcome the negative effects of trifluralin on shoot length
root length increased by (rice cv. Cheniere [1]; addition of 30 ppm PESA to 100 ppm pendimethalin): 25%
Shoot Length (rice cv. Cheniere [1]; no dithiopyr (Control), treatment 30 ppm PESA salt, 10 ppm GA3 or both, untreated 3.9): 3.6 cm
Root Length (rice cv. Cheniere [1]; no dithiopyr (Control), treatment 30 ppm PESA salt, 10 ppm GA3 or both, untreated 9.5): 10.7 cm
Shoot Length (cotton; 0 ppm chlorsulfuron): 5.2 cm
Root Length (cotton; 0 ppm chlorsulfuron): 14.0 cm
Shoot Length (cotton; 1 ppm chlorsulfuron): 2.7 cm
Root Length (cotton; 1 ppm chlorsulfuron): 2.1 cm
Shoot Length (cotton; 10 ppm chlorsulfuron): 1.7 cm
Root Length (cotton; 10 ppm chlorsulfuron): 2.0 cm
Shoot Length (cotton; 100 ppm chlorsulfuron): 1.7 cm
Root Length (cotton; 100 ppm chlorsulfuron): 2.0 cm
protection of root length from herbicide (cotton; PESA salt with chlorsulfuron): unable to overcome the negative effects of chlorsulfuron on root length
protection of root growth by seed treatment (rice cv. Cheniere [2]; PESA salt seed treatment, trifluralin 50 ppm): significant protection against intermediate rates of trifluralin (50 ppm)
Root Length (rice cv. Cheniere [2]; seed treatment 10 g PESA salt/100 lbs of seed, 0 ppm trifluralin): 10.7 cm
Root Length (rice cv. Cheniere [2]; seed treatment 10 g PESA salt/100 lbs of seed, 50 ppm trifluralin): 4.6 cm
Root Length (rice cv. Cheniere [2]; seed treatment 10 g PESA salt/100 lbs of seed, 100 ppm trifluralin): 0.3 cm
Root Length (rice cv. Cheniere [2]; seed treatment 25 g PESA salt/100 lbs of seed, 0 ppm trifluralin): 10.1 cm
Root Length (rice cv. Cheniere [2]; seed treatment 25 g PESA salt/100 lbs of seed, 50 ppm trifluralin): 5.2 cm
Root Length (rice cv. Cheniere [2]; seed treatment 25 g PESA salt/100 lbs of seed, 100 ppm trifluralin): 0.3 cm
Root Length (rice cv. Cheniere [2]; seed treatment 50 g PESA salt/100 lbs of seed, 0 ppm trifluralin): 10.3 cm
Root Length (rice cv. Cheniere [2]; seed treatment 50 g PESA salt/100 lbs of seed, 50 ppm trifluralin): 6.0 cm
Root Length (rice cv. Cheniere [2]; seed treatment 50 g PESA salt/100 lbs of seed, 100 ppm trifluralin): 0.3 cm
